Common to all, as to experiment: Antibacterial activity evaluation test, MIC by broth microdilution (CLSI)
Common to all, as to assay type: cell-based
(Broth dilution looks for growth in wells or tubes with falling amounts of substance.)

Assay [1] concerns CTX-M-15-containing Escherichia coli strain (TK-1747). The note with it: for MIC: Escherichia coli. The method, then:
(§1) The minimum inhibitory concentration (MIC) was measured according to the Clinical and Laboratory Standards Institute (CLSI) standard method by using the following broth microdilution method.
(§2) As bacteria, a Pseudomonas aeruginosa strain ATCC27853, an AmpC-derepressed Pseudomonas aeruginosa mutant strain (S-3028), an IMP-1-containing Pseudomonas aeruginosa strain (S-2838), a VIM-2-containing Pseudomonas aeruginosa strain (S-3779), a GES-19 and GES-20-containing Pseudomonas aeruginosa strain (S-3759), a CTX-M-15-containing Escherichia coli strain (TK-1747), a KPC-2-containing Klebsiella pneumoniae strain (Y-995), an OXA-48-containing Klebsiella pneumoniae strain (Y-1062), and an NDM-1-containing Klebsiella pneumoniae strain (Y-1007) were used. The test bacterial cells that had been cultured overnight on a Mueller Hinton agar medium were scraped off, suspended at a density equivalent to 0.5 McFarland standard, and diluted 10-fold, thereby obtaining an inoculum. A cation-adjusted Mueller Hinton medium containing a test compound was inoculated with 0.005 mL of the inoculum, and the cells were cultured at 35° C. for 16 to 20 hours. The minimum drug concentration at which the growth of bacteria was not visually observed was defined as MIC (μg/mL).
(§3) An antibacterial activity evaluation test was performed in the same manner as in Test Example 1.

Assay [2] relates to GES-19 and GES-20-containing Pseudomonas aeruginosa strain (S-3759). The note with it: for MIC: Pseudomonas aeruginosa. The method, then:
as §1, §2, §3

For assay [3], the system named is IMP-1-containing Pseudomonas aeruginosa strain (S-2838). The note with it: for MIC: Pseudomonas aeruginosa. On the procedure: as §1, §2, §3
Assay [4] concerns Pseudomonas aeruginosa strain ATCC27853. The note with it: ATCC27853. On the procedure: as §1, §2, §3
The test system of assay [5] is OXA-48-containing Klebsiella pneumoniae strain (Y-1062). Conditions: for MIC: Klebsiella pneumoniae. The method, then: as §1, §2, §3
Assay [6] concerns NDM-1-containing Klebsiella pneumoniae strain (Y-1007). The note with it: for MIC: Klebsiella pneumoniae. The method, then:
as §1, §2, §3

Assay [7] has as its system AmpC-derepressed Pseudomonas aeruginosa mutant strain (S-3028). Conditions: for MIC: Pseudomonas aeruginosa. The method, then:
as §1, §2, §3

The test system of assay [8] is VIM-2-containing Pseudomonas aeruginosa strain (S-3779). Conditions: for MIC: Pseudomonas aeruginosa. On the procedure:
as §1, §2, §3

The test system of assay [9] is KPC-2-containing Klebsiella pneumoniae strain (Y-995). The note with it: for MIC: Klebsiella pneumoniae. The method, then:
as §1, §2, §3

This note sets out measurements from patent US20220241249A1, “PHARMACEUTICAL COMPOSITION AND KIT CONTAINING NOVEL PENAM DERIVATIVE OR SALT THEREOF AND ONE OR MORE COMPOUNDS SELECTED FROM beta-LACTAMASE INHIBITORY COMPOUND AND ANTIBACTERIAL COMPOUND OR SALTS THEREOF” (priority 2019, published 2022).

≈ marks a conversion by molar mass, not a printed value. Like-named read-outs stand apart in the source and are kept apart here.

As to `CC(C)(O/N=C(\C(=O)N[C@@H]1C(=O)N2C[C@@](C(=O)O)(N3CCN(NC(=O)C(=O)NCCNC(=O)c4ccc(O)c(O)c4Cl)C3=O)S[C@H]12)c1csc(N)n1)C(=O)O` [Example 68, (3R,5R,6R)-6-((Z)-2-(2-aminothiazol-4-yl)-2-(((2-carboxypropan-2-yl)oxy)imino)acetamido)-3-(3-(2-((2-(2-chloro-3,4-dihydroxybenzamido)ethyl)amino)-2-oxoacetamido)-2-oxoimidazolidin-1-yl)-7-oxo-4-thia-1-azabicyclo[3.2.0]heptane-3-carboxylic acid], the MIC in assay [1] was 1 µg/mL (≈ 1.21 µM); in assay [2], 4 µg/mL (≈ 4.84 µM); in assay [3], 1 µg/mL (≈ 1.21 µM); in assay [4] (Pseudomonas aeruginosa ATCC 27853, 35° C., 16 to 20 hours, read-out: MIC) it was 1 µg/mL (≈ 1.21 µM); in assay [5], 1 µg/mL (≈ 1.21 µM); in [6], under 0.06 µg/mL. Moreover, the minimum inhibitory concentration (MIC) in assay [7] stood at 0.25 µg/mL (≈ 0.302 µM); in assay [8], 2 µg/mL (≈ 2.42 µM); in [9] it was 0.5 µg/mL (≈ 0.604 µM).
Consider `CC(C)(O/N=C(\C(=O)N[C@@H]1C(=O)N2C[C@@](C(=O)O)(N3CCN(NC(=O)CNC(=O)C(=O)c4ccc(O)c(O)c4Cl)C3=O)S[C@H]12)c1csc(N)n1)C(=O)O` [Example 29], for which the MIC in assay [1] was 2 µg/mL (≈ 2.51 µM); in [2], 0.5 µg/mL (≈ 0.626 µM); in assay [3] it was 1 µg/mL (≈ 1.25 µM); in assay [4] (Pseudomonas aeruginosa) it was 0.25 µg/mL (≈ 0.313 µM); in assay [5], 1 µg/mL (≈ 1.25 µM); in [6], under 0.06 µg/mL. Further, the MIC in [7] is under 0.06 µg/mL; in assay [8] it was 0.5 µg/mL (≈ 0.626 µM); in assay [9] it was 0.5 µg/mL (≈ 0.626 µM).
On to `CC(C)(O/N=C(\C(=O)N[C@@H]1C(=O)N2C[C@@](C(=O)O)(N3CCN(NC(=O)CCNC(=O)C(=O)c4ccc(O)c(O)c4Cl)C3=O)S[C@H]12)c1csc(N)n1)C(=O)O` [Example 30, (3R,5R,6R)-6-((Z)-2-(2-aminothiazol-4-yl)-2-(((2-carboxypropan-2-yl)oxy)imino)acetamido)-3-(3-(3-(2-(2-chloro-3,4-dihydroxyphenyl)-2-oxoacetamido)propanamido)-2-oxoimidazolidin-1-yl)-7-oxo-4-thia-1-azabicyclo[3.2.0]heptane-3-carboxylic acid], for which the minimal inhibitory concentration (MIC) in [1] is 0.25 µg/mL (≈ 0.308 µM); in assay [2], 0.5 µg/mL (≈ 0.616 µM); in [3], 0.5 µg/mL (≈ 0.616 µM); in assay [4] (Pseudomonas aeruginosa) it was 0.25 µg/mL (≈ 0.308 µM); in assay [5], 0.5 µg/mL (≈ 0.616 µM); in [6], under 0.06 µg/mL. For the same compound, the MIC in assay [7] was under 0.06 µg/mL; in assay [8], 0.5 µg/mL (≈ 0.616 µM); in [9], 0.25 µg/mL (≈ 0.308 µM).
In assay [1] (Escherichia coli TK-1747), `CC(C)(O/N=C(\C(=O)NC1C(=O)N2C[C@@](C(=O)O)(N3CCN(NC(=O)NNC(=O)C(=O)c4ccc(O)c(O)c4Cl)C3=O)S[C@H]12)c1csc(N)n1)C(=O)O` (stereo partly drawn) [Example 153] displayed an Antibacterial activity (MIC) Escherichia coli TK-1747 of 0.5 µg/mL. For the same compound, the Antibacterial activity (MIC) Pseudomonas aeruginosa S-3759 in assay [2] (Pseudomonas aeruginosa S-3759) amounted to 2 µg/mL. Further, the Antibacterial activity (MIC) Pseudomonas aeruginosa S-2838 in assay [3] (Pseudomonas aeruginosa S-2838) is 0.5 µg/mL. The compound also gave an Antibacterial activity (MIC) Pseudomonas aeruginosa ATCC 27853 in assay [4] (Pseudomonas aeruginosa) of 0.5 µg/mL. The same compound registered an Antibacterial activity (MIC) Klebsiella pneumoniae Y-1062 in assay [5] (Klebsiella pneumoniae Y-1062) of 4 µg/mL. The compound further displayed an Antibacterial activity (MIC) Klebsiella pneumoniae Y-1007 in [6] (Klebsiella pneumoniae Y-1007) of under 0.06 µg/mL. Further, in [7] (Pseudomonas aeruginosa S-3028), the Antibacterial activity (MIC) Pseudomonas aeruginosa S-3028 stood at 0.12 µg/mL. In addition, in assay [8] (Pseudomonas aeruginosa S-3779), the Antibacterial activity (MIC) Pseudomonas aeruginosa S-3779 was determined as 1 µg/mL. This compound also displayed an Antibacterial activity (MIC) Klebsiella pneumoniae Y-995 in [9] (Klebsiella pneumoniae Y-995) of 0.25 µg/mL.
On to `Nc1nc(/C(=N/OC2(C(=O)O)CC2)C(=O)N[C@@H]2C(=O)N3C[C@@](C(=O)O)(N4CCN(NC(=O)C(=O)c5ccc(O)c(O)c5Cl)C4=O)S[C@H]23)c(Cl)s1` [Example 76, (3R,5R,6R)-6-((Z)-2-(2-amino-5-chlorothiazol-4-yl)-2-((1-carboxycyclopropoxy)imino)acetamido)-3-(3-(2-(2-chloro-3,4-dihydroxyphenyl)-2-oxoacetamido)-2-oxoimidazolidin-1-yl)-7-oxo-4-thia-1-azabicyclo[3.2.0]heptane-3-carboxylic acid], for which the MIC came out at 0.06 µg/mL (≈ 0.0776 µM) in [1]; 0.25 µg/mL (≈ 0.323 µM) in assay [2]; 0.5 µg/mL (≈ 0.646 µM) in assay [3]; 0.5 µg/mL (≈ 0.646 µM) in assay [4] (Pseudomonas aeruginosa); 0.25 µg/mL (≈ 0.323 µM) in [5]; 0.25 µg/mL (≈ 0.323 µM) in assay [6]. In addition, the minimum inhibitory concentration (MIC) was found to be 0.12 µg/mL (≈ 0.155 µM) in assay [7], 0.25 µg/mL (≈ 0.323 µM) in assay [8] and 0.25 µg/mL (≈ 0.323 µM) in assay [9].
As for `Nc1nc(/C(=N/OC2(C(=O)O)CC2)C(=O)N[C@@H]2C(=O)N3C[C@@](C(=O)O)(N4CCN(NC(=O)C(=O)c5ccc(O)c(O)c5Cl)C4=O)S[C@H]23)cs1` [Example 21, (3R,5R,6R)-6-((Z)-2-(2-aminothiazol-4-yl)-2-((1-carboxycyclopropoxy)imino)acetamido)-3-(3-(2-(2-chloro-3,4-dihydroxyphenyl)-2-oxoacetamido)-2-oxoimidazolidin-1-yl)-7-oxo-4-thia-1-azabicyclo[3.2.0]heptane-3-carboxylic acid], the MIC in assay [1] is 0.12 µg/mL (≈ 0.162 µM); in assay [2], 1 µg/mL (≈ 1.35 µM); in assay [3], 2 µg/mL (≈ 2.71 µM); in assay [4] (Pseudomonas aeruginosa) it was 0.25 µg/mL (≈ 0.338 µM); in assay [5], 2 µg/mL (≈ 2.71 µM); in [6], under 0.06 µg/mL. Moreover, the MIC is 4 µg/mL (≈ 5.41 µM) in assay [7], 0.5 µg/mL (≈ 0.676 µM) in assay [8] and under 0.06 µg/mL in [9].
Consider `CC(C)(O/N=C(\C(=O)N[C@@H]1C(=O)N2C[C@@](C(=O)O)(N3CCN(NC(=O)C(=O)c4ccc(O)c(O)c4Cl)C3=O)S[C@H]12)c1nc(N)sc1Cl)C(=O)O` [Example 22, (3R,5R,6R)-6-((Z)-2-(2-amino-5-chlorothiazol-4-yl)-2-(((2-carboxypropan-2-yl)oxy)imino)acetamido)-3-(3-(2-(2-chloro-3,4-dihydroxyphenyl)-2-oxoacetamido)-2-oxoimidazolidin-1-yl)-7-oxo-4-thia-1-azabicyclo[3.2.0]heptane-3-carboxylic acid], for which the minimum inhibitory concentration (MIC) was under 0.06 µg/mL in [1]; 0.5 µg/mL (≈ 0.645 µM) in assay [2]; 0.5 µg/mL (≈ 0.645 µM) in assay [3]; 0.5 µg/mL (≈ 0.645 µM) in [4] (Pseudomonas aeruginosa); 0.06 µg/mL (≈ 0.0774 µM) in assay [5]; under 0.06 µg/mL in assay [6]. The MIC in [7] was 0.5 µg/mL (≈ 0.645 µM); in assay [8], 0.25 µg/mL (≈ 0.322 µM); in assay [9], 0.06 µg/mL (≈ 0.0774 µM).
For `CC(C)(O/N=C(\C(=O)N[C@@H]1C(=O)N2C[C@@](C(=O)O)(n3nnc(CNC(=O)c4ccc(O)c(O)c4Cl)n3)S[C@H]12)c1csc(N)n1)C(=O)O` [Example 141, (3R,5R,6R)-6-((Z)-2-(2-aminothiazol-4-yl)-2-(((2-carboxypropan-2-yl)oxy)imino)acetamido)-3-(5-((2-chloro-3,4-dihydroxybenzamido)methyl)-2H-tetrazol-2-yl)-7-oxo-4-thia-1-azabicyclo[3.2.0]heptane-3-carboxylic acid], the minimal inhibitory concentration (MIC) in assay [1] came to 0.5 µg/mL (≈ 0.703 µM); in assay [2], 4 µg/mL (≈ 5.63 µM); in assay [3], 0.25 µg/mL (≈ 0.352 µM); in assay [4] (Pseudomonas aeruginosa) it was 1 µg/mL (≈ 1.41 µM); in assay [5] it was 1 µg/mL (≈ 1.41 µM); in [6], 0.25 µg/mL (≈ 0.352 µM). Further, the minimum inhibitory concentration (MIC) was 0.5 µg/mL (≈ 0.703 µM) in assay [7], 1 µg/mL (≈ 1.41 µM) in assay [8] and over 32 µg/mL in assay [9].
As for `CC(C)(O/N=C(\C(=O)NC1C(=O)N2C[C@@](C(=O)O)(N3CCN(NC(=O)C(=O)NNC(=O)C(=O)c4ccc(O)c(O)c4Cl)C3=O)S[C@H]12)c1nc(N)sc1Cl)C(=O)O` (stereo partly drawn) [Example 136, (3R,5R,6R)-6-((Z)-2-(2-amino-5-chlorothia-zol-4-yl)-2-(((2-carboxy-propan-2-yl)oxy)imino)-acetamido)-3-(3-(2-(2-(2-(2-chloro-3,4-dihydroxyphenyl)-2-oxoacetyl)hydrizinyl)-2-oxoacetamido)-2-oxoimidazolidin-1-yl)-7-oxo-4-thia-1-aza-bicyclo[3.2.0]heptane-3-carboxylic acid], the minimal inhibitory concentration (MIC) in [1] is under 0.06 µg/mL; in [2], 0.5 µg/mL (≈ 0.58 µM); in [3], 0.12 µg/mL (≈ 0.139 µM); in assay [4] (Pseudomonas aeruginosa), 0.5 µg/mL (≈ 0.58 µM); in [5] it was 0.12 µg/mL (≈ 0.139 µM); in assay [6], 0.12 µg/mL (≈ 0.139 µM). The values for the MIC in [7], in [8] and in [9] were 0.12 µg/mL (≈ 0.139 µM), 0.5 µg/mL (≈ 0.58 µM) and 0.25 µg/mL (≈ 0.29 µM), respectively.

In general, MIC refers to the lowest concentration that inhibits growth of the organism.
